Source: patent US12168067B2, “Photostable antioxidant cosmetic composition” (priority 2019, dated 2024)

Assay: Solution-based assay: residual trans-polydatin after irradiation with 1 molar equivalent of isomerization stabilizer
Type: physicochemical
Conditions: for Average of Relative Residual Trans-polydatin (percent): 0.5% by weight trans-polydatin in solution + 1 molar equivalent stabilizer, irradiated at 365 nm, 5 J total energy, HPLC-UV, per stabilizer; for Photo-stabilization of trans-polydatin in solution (in words): 365 nm, 5 J, comment on Table 2
Method: The stabilization of polydatin was evaluated in a solution-based assay where residual trans-polydatin percentage was determined after exposure to radiation. According to the experimental method, trans-polydatin was dissolved in an appropriate solvent at 0.5% by weight. To this solution was added 1 molar equivalent of an isomerization stabilizer. An aliquot of the resulting solution was diluted with methanol and the amount of trans-polydatin was quantified by HPLC-UV. The solution containing trans-polydatin and the additive was irradiated under controlled conditions at 365 nm using 5 J of total energy. An aliquot of the irradiated solution was diluted in methanol and the amount of trans-polydatin was quantified by HPLC-UV. The residual trans-polydatin was calculated by dividing the quantified amount of trans-polydatin obtained from the irradiated solution by the amount of trans-polydatin obtained from the non-irradiated solution and is expressed as a percentage. The relative residual is indicated for each photoisomerization stabilizer and is calculated as an average relative residual for classes of photoisomerization stabilizers where indicated.

Average of Relative Residual Trans-polydatin (percent)	Photo-stabilization of trans-polydatin in solution (in words)	Compound
38.3%	–	O=C1c2c(O)cc(O)cc2O[C@H](c2ccc(O)c(O)c2)[C@H]1O [Taxifolin]
32.3%	–	O=C(O)[C@H]1O[C@@H](Oc2cc3oc(-c4ccccc4)cc(=O)c3c(O)c2O)[C@H](O)[C@@H](O)[C@@H]1O [Baicalin]
66.7%	–	O=c1cc(-c2ccc(O)cc2)oc2cc(O)cc(O)c12 [Apigenin]
0.4%	–	O=C(O[C@@H]1Cc2c(O)cc(O)cc2O[C@@H]1c1cc(O)c(O)c(O)c1)c1cc(O)c(O)c(O)c1 [Epigallocatechine gallate]
−3.1%	ineffective	Cc1cc(C(C)(C)C)c(O)c(C(C)(C)C)c1 [BHT, tert-butylhydroxytoluene]
−0.9%	ineffective	O=C(O)C(O)c1ccccc1 (stereo not drawn) [Mandelic acid]
38.6%	–	O=C(O)/C=C/c1ccc(O)cc1 [p-coumaric acid]
24.8%	–	O=c1c(O)c(-c2ccc(O)c(O)c2)oc2cc(O)cc(O)c12 [Quercetin]
6.9%	ineffective	O=C1O[C@H]([C@@H](O)CO)C(O)=C1O[C@H]1O[C@H](CO)[C@@H](O)[C@H](O)[C@H]1O [Vitamin CG]
42.9%	–	O=c1cc(-c2ccccc2)oc2cc(O)c(O)c(O)c12 [Baicalein]
0.6%	ineffective	Vitamin E
30.6%	–	COc1ccc([C@@H]2CC(=O)c3c(O)cc(O)cc3O2)cc1O [Hesperetin]
35.5%	–	COc1cc(/C=C/C(=O)O)ccc1O [Ferulic acid]
−0.3%	ineffective	O=C(O)c1cc(O)c(O)c(O)c1 [Gallic acid]
−0.3%	ineffective	NC(=O)c1cccnc1 [Niacinamide]
63.3%	–	O=c1cc(-c2ccc(O)c(O)c2)oc2cc(O)cc(O)c12 [Luteolin]

Compound	Average of Relative Residual Trans-polydatin (percent)	Photo-stabilization of trans-polydatin in solution (in words)
Glycosyl Hesperidin	31.0%	–
COc1ccc([C@@H]2CC(=O)c3c(O)cc(O[C@@H]4O[C@H](CO[C@@H]5O[C@@H](C)[C@H](O)[C@@H](O)[C@H]5O)[C@@H](O)[C@H](O)[C@H]4O)cc3O2)cc1O [Hesperidine]	41.6%	–
